Source: the supplement of paper PMC10307832

Experiments:
Assay in all cases: relative viability (nuclei count vs DMSO), 5 days (fraction); higher = more cells survive
[1] = compound: CC1=CC(=NN1)NC2=CC(=NC(=N2)/C=C/C3=CC=CC=C3)N4CCN(CC4)C
Method in brief: (§1)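 Acceptance criteria were a control CV below 25% and at least one doubling per plate. Lung cancer cell lines in 1536-well plates got five library-drug doses (not always all listed) √10 apart by pinning and were left 5 days with no medium change. Viability divides treated-well nuclei by vehicle-well nuclei and is the median across plates. Nuclei were counted by MetaXpress from 4× Hoechst images.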

Obatoclax = compound: COC1=CC(c2cc3ccccc3[nH]2)=N/C1=C\c1[nH]c(C)cc1C [Obatoclax]
Method in brief: as §1

Bortezomib = compound: CC(C)C[C@H](NC(=O)[C@H](Cc1ccccc1)NC(=O)c1cnccn1)B(O)O [Bortezomib]
Method in brief: as §1

Cell Line	relative viability ([1]; 0.08 µM)	relative viability ([1]; 0.253 µM)	relative viability ([1]; 0.8 µM)	relative viability ([1]; 2.53 µM)	relative viability ([1]; 8 µM)	relative viability (Obatoclax; 0.01 µM)	relative viability (Obatoclax; 0.03162 µM)	relative viability (Obatoclax; 0.1 µM)	relative viability (Obatoclax; 0.3162 µM)	relative viability (Obatoclax; 1 µM)	relative viability (Bortezomib; 0.0002 µM)	relative viability (Bortezomib; 0.000632 µM)	relative viability (Bortezomib; 0.002 µM)	relative viability (Bortezomib; 0.002 µM, anchor plate)	relative viability (Bortezomib; 0.006325 µM)	relative viability (Bortezomib; 0.02 µM)
HOP-62	1.03	1.11	1.04	0.825	0.367	1.01	0.985	0.889	1.02	1.05	1.02	0.985	0.925	0.791	0.477	0.076
IA-LM	0.852	1.07	1.1	0.866	0.231	0.93	0.935	0.854	0.625	0.203	0.871	0.991	0.833	0.817	0.0932	0.0256
LC-2-ad	1.02	0.996	0.799	0.303	0.177	0.988	0.988	0.81	0.896	0.564	0.877	0.815	0.99	1.01	0.257	0.198
LCLC-97TM1	0.911	0.963	0.912	0.504	0.121	0.988	0.801	1.31	0.856	0.908	0.943	0.729	1.08	0.744	0.439	0.118
LCLC-103H	0.998	1.07	1.02	0.835	0.694	0.978	0.894	0.926	0.965	1.08	0.982	0.94	1.01	1.05	0.92	0.278
LK-2	1.04	1.02	0.809	0.47	0.127	1.03	1.01	1.17	0.932	1.11	0.841	0.89	0.647	–	0.209	0.182
LOU-NH91	0.928	1.08	0.991	0.806	0.424	0.974	0.932	0.68	0.853	0.854	0.828	0.825	0.497	0.518	0.307	0.365
LU99A	1.02	0.883	0.786	0.426	0.269	0.925	0.963	0.622	0.922	0.364	–	0.737	1.03	1.14	0.797	0.303
LXF-289	0.993	1.02	0.964	0.863	0.435	0.97	1.03	0.989	0.982	0.951	0.987	0.999	1.04	0.994	0.185	0.0884
NCI-H23	0.891	0.886	0.796	0.225	0.144	1.01	0.853	0.832	0.761	0.389	0.777	0.72	0.995	1.09	0.294	0.134
NCI-H322M	0.951	0.969	0.847	0.413	0.281	0.975	0.783	1.16	1	1.01	0.922	–	0.918	1.24	0.458	0.421
NCI-H358	0.847	0.92	0.787	0.203	0.11	0.923	0.911	0.833	0.623	0.319	0.904	0.675	0.874	–	0.131	0.162
NCI-H441	1.01	1.01	0.931	0.249	0.143	1.06	0.91	0.99	0.705	0.463	0.936	0.964	0.575	0.555	0.132	0.139
NCI-H460	1.01	1.03	1.01	0.597	0.0321	1	0.936	0.882	0.746	0.56	0.971	0.97	1.03	1.09	0.542	0.0702
NCI-H520	0.975	1.04	0.871	0.261	0.126	0.993	0.791	1.07	0.976	0.774	1.08	0.956	0.654	0.622	0.172	0.169
NCI-H522	0.917	0.89	0.962	0.554	0.444	0.951	0.894	0.861	0.876	0.904	0.947	0.745	1.02	–	0.638	0.415
NCI-H596	1	0.998	0.879	0.614	0.256	1.01	0.858	0.843	0.691	0.584	0.918	0.894	0.718	1.05	0.241	0.211
NCI-H647	0.868	1.05	0.935	0.14	0.056	0.987	0.894	0.68	0.711	0.303	0.865	0.812	0.55	0.962	0.0435	0.0339
NCI-H661	0.986	0.958	1.03	0.708	0.356	0.96	0.962	1.02	0.883	0.842	0.952	0.99	0.989	0.807	0.719	0.228
NCI-H727	0.835	0.688	0.924	0.441	0.374	1.09	0.88	1.14	0.972	0.658	0.919	1.06	0.897	0.936	0.647	0.171
NCI-H838	0.963	1.03	0.846	0.214	0.133	0.995	0.945	0.78	0.904	0.65	0.952	0.955	0.974	0.858	0.253	0.161
NCI-H1299	1.04	1.02	1.03	0.719	0.328	0.989	1.03	0.948	1.01	0.9	0.992	0.955	1.03	1	0.507	0.167
